Experimental data from US4396615A, “Method of treating androgen-related disorders” (Duke University, priority 1981, dated 1983).
Several values for one entry are separate records, joined by “and”; a condition that tells them apart may be missing. Identical values can stand only once.

Experiments:
5α-reductase [1] = test: 5α-reductase assay of Moore and Wilson, with or without preincubation of enzyme with inhibitor and NADPH; assay type: biochemical; settings: for potency as inhibitor of the enzyme relative to progesterone: assay of Moore and Wilson; for Picomol Testosterone reduced/mg protein in 45 min + SEM: assay 45 min: inhibitor 5 × 10^-8, testosterone 5 × 10^-8, NADPH 5 × 10^-4 M; for manner of combination with / inactivation of the enzyme: in the presence of the co-factor NADPH; for Picomol Testosterone Reduced/mg protein in 45 min: assay 45 min: progesterone 5 × 10^-8, NADPH 5 × 10^-4, testosterone 5 × 10^-8
Source text: Employing the assay of R. J. Moore and J. D. Wilson [Methods in Enzymology, Vol. XXXVI, Academic Press, N.Y., Ed. W. O'Malley and G. Hardman, p.

[2] = test system: 5α-reductase in cell-culture preparations of human prostate; settings: cited from earlier work
sebum secretion = settings: topical administration of a 0.5% solution in aqueous ethanol; cited from earlier work
5α-reductase [3] = settings: well-known, prior art; cited from earlier work
5α-reductase [4] = settings: preparations of human benign prostatic hypertrophic tissue; cited from earlier work

Row | Compound | potency as inhibitor of the enzyme relative to progesterone (5α-reductase [1]) | Picomol Testosterone reduced/mg protein in 45 min + SEM (5α-reductase [1]; A: preincubation 15 min with inhibitor 5 × 10^-7 M and NADPH 6 × 10^-5 M) | Picomol Testosterone reduced/mg protein in 45 min + SEM (5α-reductase [1]; B: preincubation 15 min with inhibitor 0 and NADPH 6 × 10^-5 M) | Picomol Testosterone reduced/mg protein in 45 min + SEM (5α-reductase [1]; C: preincubation 15 min with inhibitor 0 and NADPH 0) | Picomol Testosterone reduced/mg protein in 45 min + SEM (5α-reductase [1]; D: preincubation 15 min with inhibitor 5 × 10^-7 M and NADPH 0) | Picomol Testosterone reduced/mg protein in 45 min + SEM (5α-reductase [1]; F: no preincubation) | Ki (5α-reductase [1]; first phase, from plot of t1/2 against 1/[Inhibitor] (FIG. 2), read-out: Ki of reversible combination of enzyme and inhibitor) [µM] | manner of combination with / inactivation of the enzyme (5α-reductase [1]) | time course of inactivation of the enzyme (5α-reductase [1]; incubation of enzyme with NADPH and inhibitor (FIG. 1)) | enzyme activity lost (5α-reductase [1]; preincubation of enzyme with compound and NADPH, diluted tenfold, then assayed) [%] | rate constant of irreversible combination (kcat) (5α-reductase [1]; second phase, enzyme-inhibitor complex rendered inactive) [s⁻¹] | effect on growth of the tissue [2] | inhibition of the enzyme in cell-culture preparations of human prostate [2] | males with acne showing an important decrease in sebum secretion (sebum secretion) | type of inhibition of the enzyme (5α-reductase [3]) | conversion of testosterone to dihydrotestosterone (5α-reductase [4]) | Picomol Testosterone Reduced/mg protein in 45 min (5α-reductase [1]; 1: preincubation 15 min with progesterone 0 and NADPH 6 × 10^-5) | Picomol Testosterone Reduced/mg protein in 45 min (5α-reductase [1]; 2: preincubation 15 min with progesterone 5 × 10^-7 and NADPH 6 × 10^-5) | Picomol Testosterone Reduced/mg protein in 45 min (5α-reductase [1]; 4: no preincubation) | enzyme inactivation on preincubation (5α-reductase [1]; preincubation of enzyme with compound and NADPH)
1 | C=C1C[C@H]2[C@@H]3CC[C@H](C(C)=O)[C@@]3(C)CC[C@@H]2[C@@]2(C)CCC(=O)C=C12 [6-methyleneprogesterone] | equipotent with progesterone | – | – | – | – | – | – | – | – | – | – | – | – | – | – | – | – | – | – | –
2 | C=C1C[C@@H]2[C@H](CC[C@@]3(C)[C@H]2CC[C@]3(OC(C)=O)C(C)=O)[C@@]2(C)CCC(=O)C=C12 [17α-acetoxy-6-methyleneprogesterone] | equipotent with progesterone | 0.71 ± 0.018 Picomol Testosterone reduced/m | 3.0 ± 0.26 Picomol Testosterone reduced/m | 2.83 ± 0.09 Picomol Testosterone reduced/m | 2.63 ± 0.18 Picomol Testosterone reduced/m | 3.14 ± 0.20 Picomol Testosterone reduced/m | 1.25 | irreversible manner | pseudo first-order kinetics | 75 | 0.0048 | – | – | – | – | – | – | – | – | –
3 | CC(=O)[C@H]1CC[C@H]2[C@@H]3CCC4=CC(=O)CC[C@]4(C)[C@H]3CC[C@]12C [progesterone] | – | – | – | – | – | – | – | competitive and reversible | – | – | – | inhibiting growth of the tissue | strongly inhibits the enzyme | 45/53 | reversible and competitive inhibitor | Inhibition of the conversion of testosterone to dihydrotestosterone | 3.91 Picomol Testosterone Reduced/m and 3.41 Picomol Testosterone Reduced/m | 3.91 Picomol Testosterone Reduced/m and 3.79 Picomol Testosterone Reduced/m | 3.66 Picomol Testosterone Reduced/m and 3.54 Picomol Testosterone Reduced/m | does not result in enzyme inactivation
